Results taken from the supplement of paper PMC10307832.

Key:
Test in all cases: relative viability (nuclei count vs DMSO), 5 days (fraction); higher = more cells survive
KN-93 + AZD7762 = compound: CN(C/C=C/C1=CC=C(C=C1)Cl)CC2=CC=CC=C2N(CCO)S(=O)(=O)C3=CC=C(C=C3)OC [KN-93] + NC(=O)Nc1cc(-c2cccc(F)c2)sc1C(=O)N[C@H]1CCCNC1 [AZD7762] (partner 0.2 µM)
In short: (§1)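 After 5 days of treatment, lung cancer cells in 1536-well plates were fixed and stained in a single step (final 0.05% Triton X-100, 1% formaldehyde, 1 ug/ml Hoechst) and their nuclei counted on 4× images. Treatment had been applied by pin tool the day after seeding as one drug alone or as a fixed anchor-drug dose with five library-drug doses (not always all listed) in √10 steps. Relative viability is the nuclei count of treated wells divided by that of vehicle wells, and values are medians of duplicate plates.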

KN-93 + Dasatinib = compound: CN(C/C=C/C1=CC=C(C=C1)Cl)CC2=CC=CC=C2N(CCO)S(=O)(=O)C3=CC=C(C=C3)OC [KN-93] + Cc1nc(Nc2ncc(C(=O)Nc3c(C)cccc3Cl)s2)cc(N2CCN(CCO)CC2)n1 [Dasatinib] (partner 0.075 µM)
In short: as §1

KN-93 + Trametinib = compound: CN(C/C=C/C1=CC=C(C=C1)Cl)CC2=CC=CC=C2N(CCO)S(=O)(=O)C3=CC=C(C=C3)OC [KN-93] + CC(=O)Nc1cccc(-n2c(=O)n(C3CC3)c(=O)c3c(Nc4ccc(I)cc4F)n(C)c(=O)c(C)c32)c1 [Trametinib] (partner 0.02 µM)
In short: as §1

KN-93 + Tozasertib = compound: CN(C/C=C/C1=CC=C(C=C1)Cl)CC2=CC=CC=C2N(CCO)S(=O)(=O)C3=CC=C(C=C3)OC [KN-93] + Cc1cc(Nc2cc(N3CCN(C)CC3)nc(Sc3ccc(NC(=O)C4CC4)cc3)n2)n[nH]1 [Tozasertib] (partner 0.1 µM)
In short: as §1

KN-93 + Palbociclib = compound: CN(C/C=C/C1=CC=C(C=C1)Cl)CC2=CC=CC=C2N(CCO)S(=O)(=O)C3=CC=C(C=C3)OC [KN-93] + CC(=O)c1c(C)c2cnc(Nc3ccc(N4CCNCC4)cn3)nc2n(C2CCCC2)c1=O [Palbociclib] (partner 0.5 µM)
In short: as §1

Row | Cell Line | relative viability (KN-93 + AZD7762; first compound 0.08 µM) | relative viability (KN-93 + AZD7762; first compound 0.253 µM) | relative viability (KN-93 + AZD7762; first compound 2.53 µM) | relative viability (KN-93 + AZD7762; first compound 8 µM) | relative viability (KN-93 + Dasatinib; first compound 0.08 µM) | relative viability (KN-93 + Dasatinib; first compound 0.253 µM) | relative viability (KN-93 + Dasatinib; first compound 2.53 µM) | relative viability (KN-93 + Dasatinib; first compound 8 µM) | relative viability (KN-93 + Trametinib; first compound 0.08 µM) | relative viability (KN-93 + Trametinib; first compound 0.253 µM) | relative viability (KN-93 + Trametinib; first compound 2.53 µM) | relative viability (KN-93 + Trametinib; first compound 8 µM) | relative viability (KN-93 + Tozasertib; first compound 0.08 µM) | relative viability (KN-93 + Tozasertib; first compound 0.253 µM) | relative viability (KN-93 + Tozasertib; first compound 2.53 µM) | relative viability (KN-93 + Tozasertib; first compound 8 µM) | relative viability (KN-93 + Palbociclib; first compound 0.08 µM) | relative viability (KN-93 + Palbociclib; first compound 0.253 µM) | relative viability (KN-93 + Palbociclib; first compound 2.53 µM) | relative viability (KN-93 + Palbociclib; first compound 8 µM)
1 | NCI-H3122 | 0.892 | 1.11 | 1.12 | 0.934 | 0.716 | 0.824 | 1.12 | 0.661 | 0.2 | 0.21 | 0.264 | 0.194 | 0.385 | 0.39 | 0.469 | 0.389 | 0.127 | 0.181 | 0.229 | 0.184
2 | HOP-62 | 0.476 | 0.499 | 0.797 | 0.458 | 0.52 | 0.669 | 0.675 | 0.501 | 0.358 | 0.378 | 0.375 | 0.276 | 0.395 | 0.44 | 0.401 | 0.273 | 0.461 | 0.573 | 0.552 | 0.477
3 | NCI-H1651 | 0.394 | 0.505 | 0.526 | 0.353 | 0.491 | 0.461 | 0.626 | 0.246 | 0.79 | 0.886 | 0.689 | 0.683 | 0.647 | 0.627 | 0.906 | 0.509 | 0.511 | 0.536 | 0.582 | 0.488
4 | LCLC-103H | 0.732 | 0.808 | 0.822 | 0.626 | 0.438 | 0.464 | 0.438 | 0.26 | 0.692 | 0.678 | 0.609 | 0.551 | 0.427 | 0.501 | 0.434 | 0.376 | 0.472 | 0.458 | 0.49 | 0.518
5 | NCI-H2347 | 0.621 | 0.861 | 0.885 | 0.498 | 0.322 | 0.273 | 0.288 | 0.245 | 0.28 | 0.316 | 0.282 | 0.26 | 0.587 | 0.55 | 0.618 | 0.505 | 0.378 | 0.44 | 0.434 | 0.407
